Measured values from patent US11174248B2, “Indazolyl-spiro[2.3]hexane-carbonitrile derivatives as LRRK2 inhibitors, pharmaceutical compositions, and uses thereof” (Merck Sharp & Dohme Corp., priority 2017, dated 2021).

These molecules were tested against GST-tagged truncated human mutant G2019S LRRK2 (Homo sapiens (Human), UniProt Q5S007, G2019S) (assay: LRRK2 Km ATP LanthaScreen Assay). Settings: 134 μM ATP (Km ATP); fluorescein-labeled LRRKtide substrate; mean IC50 values.
Type: biochemical
Procedure: Unless otherwise noted, all LRRK2 IC50 data presented in tables refers to the LRRK2 Km ATP LanthaScreen™ Assay that is described in the Biological Assay section.
Biological Assay: LRRK2 Km ATP LanthaScreen™ Assay
The LRRK2 kinase activity reported herein as IC50 values was determined with LanthaScreen™ technology from Life Technologies Corporation (Carlsbad, Calif.) using GST-tagged truncated human mutant G2019S LRRK2 in the presence of the fluorescein-labeled peptide substrate LRRKtide, also from Life Technologies. The data presented for the Km ATP LanthaScreen™ Assay represents mean IC50 values based on several test results and may have reasonable deviations depending on the specific conditions and reagents used. Assays were performed in the presence of 134 μM ATP (Km ATP). Upon completion, the assay was stopped and phosphorylated substrate detected with a terbium (Tb)-labeled anti-pERM antibody (cat. no. PV4898). The compound dose response was prepared by diluting a 10 mM stock of compound to a maximum concentration of 9.99 μM in 100% dimethylsulfoxide followed by custom fold serial dilution in dimethylsulfoxide nine times. Twenty nanoliters of each dilution was spotted via a Labcyte Echo onto a 384-well black-sided plate (Corning 3575) followed by 15 μl of a 1.25 nM enzyme solution in 1× assay buffer (50 mM Tris pH 8.5, 10 mM MgCl2, 0.01% Brij-35, 1 mM EGTA, 2 mM dithiothreitol, 0.05 mM sodium orthovanadate) Following a 15-minute incubation at room temperature, the kinase reaction was started with the addition of 5 μl of 400 nM fluorescein-labeled LRRKtide peptide substrate and 134 μM ATP solution in 1× assay buffer. The reaction was allowed to progress at ambient temperature for 90 minutes. The reaction was then stopped by the addition of 20 μl of TR-FRET Dilution Buffer (Life Technologies, Carlsbad, Calif.) containing 2 nM Tb-labeled anti-phospho LRRKtide antibody and 10 mM EDTA (Life Technologies, Carlsbad, Calif.). After an incubation of 1 hour at room temperature, the plate was read on an EnVision multimode plate reader (Perkin Elmer, Waltham, Mass.) with an excitation wavelength of 337 nm (Laser) and a reading emission at both 520 and 495 nm. Compound IC50s were interpolated from nonlinear regression best fits of the log of the final compound concentration, plotted as a function of the 520/495-nm emission ratio using Activity base. Abase uses a 4 parameter (4P) logistic fit based on the Levenberg-Marquardt algorithm.

GST-tagged truncated human mutant G2019S LRRK2, sequence (Q5S007 970-2527 G2019S): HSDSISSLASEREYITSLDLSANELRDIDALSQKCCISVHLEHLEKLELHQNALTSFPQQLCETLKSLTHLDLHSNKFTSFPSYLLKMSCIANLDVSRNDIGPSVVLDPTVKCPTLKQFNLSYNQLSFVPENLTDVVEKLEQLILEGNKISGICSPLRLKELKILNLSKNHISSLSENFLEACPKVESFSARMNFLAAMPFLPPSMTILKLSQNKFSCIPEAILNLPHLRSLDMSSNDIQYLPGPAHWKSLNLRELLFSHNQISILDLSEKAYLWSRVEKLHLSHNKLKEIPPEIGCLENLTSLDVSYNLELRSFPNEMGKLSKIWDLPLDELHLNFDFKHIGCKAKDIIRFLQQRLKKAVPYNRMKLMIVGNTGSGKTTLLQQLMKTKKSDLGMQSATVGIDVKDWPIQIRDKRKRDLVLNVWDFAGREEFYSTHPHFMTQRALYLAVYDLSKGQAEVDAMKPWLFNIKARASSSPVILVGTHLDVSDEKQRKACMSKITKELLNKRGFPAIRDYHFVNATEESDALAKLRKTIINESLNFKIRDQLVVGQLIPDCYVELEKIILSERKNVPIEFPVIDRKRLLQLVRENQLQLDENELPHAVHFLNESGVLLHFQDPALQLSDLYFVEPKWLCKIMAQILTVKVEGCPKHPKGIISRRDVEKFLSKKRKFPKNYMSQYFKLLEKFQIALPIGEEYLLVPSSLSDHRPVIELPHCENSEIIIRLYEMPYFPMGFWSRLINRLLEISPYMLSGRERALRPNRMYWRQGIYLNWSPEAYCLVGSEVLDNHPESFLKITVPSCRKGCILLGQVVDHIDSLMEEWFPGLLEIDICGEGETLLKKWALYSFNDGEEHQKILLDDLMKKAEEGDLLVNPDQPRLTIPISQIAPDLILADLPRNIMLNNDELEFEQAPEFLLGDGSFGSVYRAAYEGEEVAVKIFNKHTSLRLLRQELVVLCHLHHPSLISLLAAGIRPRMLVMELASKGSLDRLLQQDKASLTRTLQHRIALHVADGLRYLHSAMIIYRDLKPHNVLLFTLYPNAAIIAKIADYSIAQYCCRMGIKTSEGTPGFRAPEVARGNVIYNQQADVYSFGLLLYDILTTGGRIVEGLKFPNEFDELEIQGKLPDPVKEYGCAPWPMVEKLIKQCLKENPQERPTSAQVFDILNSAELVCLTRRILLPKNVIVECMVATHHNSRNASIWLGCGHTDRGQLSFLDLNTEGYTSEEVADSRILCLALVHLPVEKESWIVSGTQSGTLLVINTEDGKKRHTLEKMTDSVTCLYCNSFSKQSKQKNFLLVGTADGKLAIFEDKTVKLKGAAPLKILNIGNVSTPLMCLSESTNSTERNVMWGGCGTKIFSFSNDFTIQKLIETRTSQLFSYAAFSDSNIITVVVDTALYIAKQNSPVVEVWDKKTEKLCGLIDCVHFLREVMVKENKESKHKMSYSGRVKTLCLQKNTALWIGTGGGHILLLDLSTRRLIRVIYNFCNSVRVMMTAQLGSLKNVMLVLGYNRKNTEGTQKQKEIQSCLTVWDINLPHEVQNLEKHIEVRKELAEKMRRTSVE

SMILES	IC50 [nM]
CN1CCN(c2cc(-n3ncc4ccc(C5(C#N)CC6(CC6)C5)cc43)ncn2)CC1CO (single isomer, unassigned) [Example 15, 5-(1-(6-(3-(hydroxymethyl)-4-methylpiperazin-1-yl)pyrimidin-4-yl)-1H-indazol-6-yl)spiro[2.3]hexane-5-carbonitrile]	3.8
CN1CCN(c2cc(-n3ncc4ccc(C5(C#N)CC6(CC6)C5)cc43)ncn2)CC1CO (single isomer, unassigned) [Example 16, 5-(1-(6-(3-(hydroxymethyl)-4-methylpiperazin-1-yl)pyrimidin-4-yl)-1H-indazol-6-yl)spiro[2.3]hexane-5-carbonitrile]	1.2
CC(C)(O)C1CN(c2cc(-n3ncc4ccc(C5(C#N)CC6(CC6)C5)cc43)ncn2)CC1F (single isomer, unassigned) [Example 22, 5-(1-(6-(3-fluoro-4-(2-hydroxypropan-2-yl)pyrrolidin-1-yl)pyrimidin-4-yl)-1H-indazol-6-yl)spiro[2.3]hexane-5-carbonitrile]	3.7
CC(C)(O)C1CN(c2cc(-n3ncc4ccc(C5(C#N)CC6(CC6)C5)cc43)ncn2)CC1F (single isomer, unassigned) [Example 23, 5-(1-(6-(3-fluoro-4-(2-hydroxypropan-2-yl)pyrrolidin-1-yl)pyrimidin-4-yl)-1H-indazol-6-yl)spiro[2.3]hexane-5-carbonitrile]	4.6
C[C@H]1CN(c2cc(-n3ncc4ccc(C5(C#N)CC6(CC6)C5)cc43)ncn2)CCN1C1CCOC1 (single isomer, unassigned) [Example 34]	0.9
C[C@H]1CN(c2cc(-n3ncc4ccc(C5(C#N)CC6(CC6)C5)cc43)ncn2)CCN1C1CCOC1 (single isomer, unassigned) [Example 35]	3.5
CC1C(C(C)(C)O)CCN1c1cc(-n2ncc3ccc(C4(C#N)CC5(CC5)C4)cc32)ncn1 (single isomer, unassigned) [Example 36, 5-(1-(6-(3-(2-hydroxypropan-2-yl)-2-methylpyrrolidin-1-yl)pyrimidin-4-yl)-1H-indazol-6-yl)spiro[2.3]hexane-5-carbonitrile]	3.2
CC1C(C(C)(C)O)CCN1c1cc(-n2ncc3ccc(C4(C#N)CC5(CC5)C4)cc32)ncn1 (single isomer, unassigned) [Example 37, 5-(1-(6-(3-(2-hydroxypropan-2-yl)-2-methylpyrrolidin-1-yl)pyrimidin-4-yl)-1H-indazol-6-yl)spiro[2.3]hexane-5-carbonitrile]	138
CC1C(C(C)(C)O)CCN1c1cc(-n2ncc3ccc(C4(C#N)CC5(CC5)C4)cc32)ncn1 (single isomer, unassigned) [Example 38, 5-(1-(6-(3-(2-hydroxypropan-2-yl)-2-methylpyrrolidin-1-yl)pyrimidin-4-yl)-1H-indazol-6-yl)spiro[2.3]hexane-5-carbonitrile]	59
CC1C(C(C)(C)O)CCN1c1cc(-n2ncc3ccc(C4(C#N)CC5(CC5)C4)cc32)ncn1 (single isomer, unassigned) [Example 39, 5-(1-(6-(3-(2-hydroxypropan-2-yl)-2-methylpyrrolidin-1-yl)pyrimidin-4-yl)-1H-indazol-6-yl)spiro[2.3]hexane-5-carbonitrile]	1.2
CN1CCOC2CN(c3cc(-n4ncc5ccc(C6(C#N)CC7(CC7)C6)cc54)ncn3)CC21 (single isomer, unassigned) [Example 40, 5-(1-(6-(4-methylhexahydropyrrolo[3,4-b][1,4]oxazin-6(2H)-yl)pyrimidin-4-yl)-1H-indazol-6-yl)spiro[2.3]hexane-5-carbonitrile]	0.9
CN1CCOC2CN(c3cc(-n4ncc5ccc(C6(C#N)CC7(CC7)C6)cc54)ncn3)CC21 (single isomer, unassigned) [Example 41]	1.2
CC1CC12CC(C#N)(c1ccc3cnn(-c4cc(N5CCN6CCOC[C@@H]6C5)ncn4)c3c1)C2 (single isomer, unassigned) [Example 50]	4.4
